The target of one series is human AT2R fused to Cb23 (Homo sapiens, UniProt P50052). The experiment in a line: Radioligand binding assay, displacement of 125I-[Sar1, Ile8]-Angiotensin II, hAT2R Cb23. The settings on record: displacement of 125I-[Sar1, Ile8]-Angiotensin II, human AT2R fused to Cb23, HEK-293 cell membrane preparations; read-out: Binding affinity on hAT2R_Cb23 IC50. The essentials: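 Membranes from HEK-293 cells expressing human AT2R fused to Cb23 were incubated with 0.05 nM 125I-[Sar1, Ile8]-Angiotensin II in 100 μL buffer (50 mM Tris, 5 mM MgCl2, 1 mM EDTA, 0.1% BSA, pH 7.4) for one hour at 25° C. Ligands were tested as eight-point dose-response curves in duplicate, with C21 and Angiotensin II as references.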
(In a radioligand displacement assay an active substance lowers the binding of a labelled ligand.)

Series [1] in a line: Caco-2 permeability assay. The class given is in vitro ADME. The settings on record: human, pH 7.4; Caco-2, BA. On the technique in general: Caco-2 monolayers are a common model of the intestinal barrier.
For another series, the target named is human AT1R (Homo sapiens (Human), UniProt P30556). The series can be described thus: Counterscreen radioligand binding assay, displacement of 125I-[Sar1, Ile8]-Angiotensin II, hAT1R WT. Conditions: for inhibition at 1 µM / inhibition at 10 µM: 125I-[Sar1, Ile8]-Ang II, semi-quantitative score; for inhibition at 1 µM: compound at 1 μM, read-out: % Displaced radioligand at 1 μM; for inhibition at 10 µM: compound at 10 μM, read-out: % Displaced radioligand at 10 μM. In short, it runs like this:
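Membranes from HEK-293 cells expressing human AT1R were incubated for one hour at 25° C, pH 7.4, with 0.05 nM radiolabelled [Sar1, Ile8]-Ang II and test ligand. Bound radioactivity was collected on PEI-soaked filters, with 10 μM unlabelled [Sar1]-Ang II defining non-specific binding. Results are percent displacement at 1 μM and […], or IC50 from eight-point duplicate curves.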

Series [2] is described as follows: Caco-2 permeability assay. The class given is in vitro ADME. The settings on record: human. As for the experimental part:
Caco-2 cells were cultured in 75 cm^2 flasks to 80-90% confluence according to the ATCC and Millipore recommendations (Arena A. et al., 2003) in humidified atmosphere at 37° C. and 5% CO2. Cells were detached with Trypsin/EDTA solution and resuspended in the cell culture medium to a final concentration of 2×10^5 cells/ml. 500 μl of the cell suspension was added to each well of HTS 24-Multiwell Insert System and 1000 μl of prewarmed complete medium was added to each well of the feeder-plate. Caco-2 cells were incubated in Multiwell Insert System for 21 days before the transport experiments. The medium in filter plate and feeder tray was refreshed every other day. After 21 days of the cell growth, the integrity of the monolayer was verified by measuring the transepithelial electrical resistance (TEER) for every well using the Millicell-ERS system ohm meter. The final TEER values were within the range 150-600 Ω×cm^2 (Srinivasan B. et al., 2015) as required for the assay conditions. 24-well insert plate was removed from its feeder plate and placed in a new sterile 24-well transport analysis plate. The inserts were washed with PBS after medium aspiration. To determine the rate of compounds transport in apical (A)-to-basolateral (B) direction, 300 μL of the test compound dissolved in transport buffer at 10 μM (HBSS, 25 mM HEPES, pH=7.4) was added into the filter wells; 1000 μL of buffer (HBSS, 25 mM HEPES, pH=7.4) was added to transport analysis plate wells. Propranolol, Atenolol, Quinidine and Digoxin were used as reference compounds. The plates were incubated for 90 min at 37° C. under continuous shaking at 50 rpm. 75 μL aliquots were taken from the donor and receiver compartments for LC-MS/MS analysis. All samples were mixed with 2 volumes of acetonitrile followed by protein sedimentation by centrifuging at 10000 rpm for 10 minutes. Supernatants were analyzed using the HPLC system coupled with tandem mass spectrometer. The apparent permeability (Papp) was calculated for Caco-2 permeability assay using the following equation:
• VA=volume of transport buffer in acceptor well • Area=surface area of the insert (equals to effective growth area of the insert −0.31 sq.cm) • Time=time of the assay • [drug]acc=concentration of test compound in acceptor well • [drug]initial,d=initial concentration of test compound in a donor well • Papp is expressed in 10^−6 cm/sec.
The % recovery can be useful in interpreting the Caco-2 data. If the recovery is very low, this may indicate poor solubility, binding of the compound to the test plate materials, metabolism by the Caco-2 cells, or accumulation of the compound in the cell monolayer. The % recovery was calculated using the following equation:
• Vacc=volume of compound solution in acceptor well […] • Vd=volume of compound solution in […] • Cacc=concentration of test compound in acceptor well (μM) • Cinitial,d=initial concentration of test compound in a donor well (μM)

Series [3] can be described thus: Liver microsomal stability, rat. The class given is in vitro ADME. The settings on record: male, pH 7.4, liver microsomes. On the procedure:
Mouse hepatic microsomes were isolated from pooled (50), perfused livers of male Balb/c mice. Rat hepatic microsomes were isolated from pooled (15), perfused livers of male Wistar rats. Isolation was performed according to the standard protocol (Hill, J. R. in Current Protocols in Pharmacology 7.8.1-7.8.11, Wiley Interscience, 2003). The batches of microsomes were tested for quality control using Imipramine, Propranolol and Verapamil as reference compounds.
(§1) Microsomal incubations were carried out in 96-well plates in 5 aliquots of 40 μL each (one for each time point). Liver microsomal incubation medium contained PBS (100 mM, pH 7.4), MgCl2 (3.3 mM), NADPH (3 mM), glucose-6-phosphate (5.3 mM), glucose-6-phosphate dehydrogenase (0.67 units/ml) with 0.42 mg of liver microsomal protein per ml. Control incubations were performed replacing the NADPH-cofactor system with PBS. Test compound (2 μM, final solvent concentration 1.6%) was incubated with microsomes at 37° C., shaking at 100 rpm. Incubations were performed in duplicates. Five time points over 40 minutes have been analyzed. The reactions were stopped by adding 12 volumes of 90% acetonitrile-water to incubation aliquots, followed by protein sedimentation by centrifuging at 5500 rpm for 3 minutes. […]. Supernatants were analyzed using the HPLC system coupled with tandem mass spectrometer (API3000 PE Sciex). Acquisition and analysis of the data were performed using Analyst 1.5.2 software (PE Sciex). The elimination constant (kel), half-life (t½) and intrinsic clearance (Clint) were determined in plot of […] versus time, using linear regression analysis:
(§2) Mouse hepatic microsomes were isolated from pooled, perfused livers of male CD1 mice. Rat hepatic microsomes were isolated from pooled, perfused livers of male Sprague Dawley rats. Dog hepatic microsomes were isolated from pooled, perfused livers of male Beagle dogs. The batches of microsomes were tested for quality control using Testosterone, Propranolol and Caffeine as reference compounds.
(§3) A 10 mM stock solution of compound in DMSO is diluted three-fold in DMSO. This pre-diluted compound solution is then further diluted to 2 μM in a 50 mM phosphate buffer (PBS, pH 7.4) and pre-warmed at 37° C. This compound dilution is mixed F2 with microsomal/cofactor mix at 37° C. under shaking at 300 rpm. Final reaction conditions are: 100 μL incubation volume, 1 μM of test compound (in duplicate), <0.1% DMSO, 0.5 mg/mL microsomes, 0.6 U/mL Glucose-6-phosphate-dehydrogenase (G6PDH, Roche, 10127671001), 3.3 mM MgCl2 (Sigma, M2670), 3.3 mM glucose-6-phosphate (Sigma, G-7879) and 1.3 mM NADP+ (Sigma, N-0505).
(§4) After 60 min of incubation at 300 rpm and 37° C., the reaction was stopped with 3 volumes of STOP solution (acetonitrile/MeOH 2/1 with diclofenac as internal standard). For the time point zero, 3 volumes of STOP solution were added to the compound dilution before the microsome mix was added. Six time points over 60 minutes have been analyzed. The samples of all time points were centrifuged, filtered and the supernatant analyzed by LCMS/MS (systems API4000).
(§5) The instrument responses (peak areas/IS peak area) were referenced to the zero time-point samples (considered as 100%) in order to determine the percentage of compound remaining.
(§6) Testosterone (1 μM) and Propranolol and Caffeine (1 μM) were used as reference compounds, being unstable and stable compounds respectively. If the microsomal stability values for these controls are not in the range determined by the historical data, the assay is not validated. The solubility of the compound in the final test concentration in 50 mM buffer pH 7.4 is checked by microscope to indicate whether precipitation is observed or not. If a precipitate is observed, no data of microsomal stability is generated.
In general terms: Liver microsomes are a subcellular fraction often used to study metabolism.

The nature of series [4]: Liver microsomal stability, human. The class given is in vitro ADME. The settings on record: pH 7.4, liver microsomes. On the procedure: as §1, §3, §4, §5, §6
The nature of series [5]: Metabolic stability in hepatocytes, rat. It counts as in vitro ADME. The settings on record: hepatocytes (cryopreserved), read-out: Rat Clint (μL/min/10^6 cells). On the procedure: The aim of this assay is to determine the metabolic stability of the compound in hepatocytes (cryopreserved) of different species (mouse CD1, rat Sprague Dawley, dog Beagle). Low hepatocyte stability may result in the formation of unwanted metabolites, high clearance, and therefore is not desirable. The decrease in parent was assessed by measuring the percentage remaining by LC-MS/MS analysis. The batches of hepatocytes were tested for quality control using Testosterone, Umbelliferone and Caffeine as reference compounds.
A 10 mM stock solution of test compound in DMSO was first diluted in DMSO to 3 mM, and then in modified Krebs-Henseleit buffer (Sigma, K3753) to 5 μM. This compound dilution was added to a suspension of pooled cryopreserved hepatocytes (BioIVT) at 37° C. under gentle shaking. Final reaction conditions were: 1 μM of test compound, <0.1% DMSO, 0.5 million viable hepatocytes/mL, and 75 μL incubation volume.
After 0, 10, 20, 45, 90, 120 and 180 min of incubation, the reaction was terminated with 3 volumes of MeCN:MeOH (2:1) containing diclofenac as analytical internal standard. Samples were mixed, centrifuged and the supernatant analyzed by LC-MS/MS (systems API4000). The instrument responses (ratios of test compound and internal standard peak areas) were referenced to the zero time point samples (considered as 100%) in order to determine the percentage of compound remaining. Plots of percentage compound remaining were used to determine the intrinsic clearance in the hepatocyte incubations.
Testosterone (1 μM) and Umbelliferone (1 μM) and Caffeine (1 μM) were used as reference compounds, being unstable and stable compounds respectively. If the hepatocyte stability values for these controls are not in the range determined by the historical data, the assay is not validated.

Series [6] is described as follows: Liver microsomal stability, dog. The class given is in vitro ADME. Conditions: male, Beagle, pH 7.4, liver microsomes. On the procedure:
as §2, §3, §4, §5, §6

This note sets out measurements from patent US20240368133A1, “Compounds for the Treatment of Pain, in Particular, Neuropathic Pain, and/or Other Diseases or Disorders that are Associated with AT2R and/or AT2R Mediated Signaling” (Confo Therapeutics N.V., priority 2021, published 2024).

Some results are limits rather than exact numbers.

Sequence of human AT2R fused to Cb23 (P50052 whole entry, looked up, the tested form may be a part): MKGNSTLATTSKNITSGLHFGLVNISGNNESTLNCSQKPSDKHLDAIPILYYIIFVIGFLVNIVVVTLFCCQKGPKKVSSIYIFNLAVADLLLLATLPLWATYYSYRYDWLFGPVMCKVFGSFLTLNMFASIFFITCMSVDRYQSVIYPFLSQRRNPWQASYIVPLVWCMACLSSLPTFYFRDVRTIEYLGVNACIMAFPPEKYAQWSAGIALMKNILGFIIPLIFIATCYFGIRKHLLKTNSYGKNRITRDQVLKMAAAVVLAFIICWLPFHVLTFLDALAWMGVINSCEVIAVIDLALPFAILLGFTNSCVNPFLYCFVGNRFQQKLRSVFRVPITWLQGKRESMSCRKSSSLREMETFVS
Sequence of human AT1R (P30556 whole entry): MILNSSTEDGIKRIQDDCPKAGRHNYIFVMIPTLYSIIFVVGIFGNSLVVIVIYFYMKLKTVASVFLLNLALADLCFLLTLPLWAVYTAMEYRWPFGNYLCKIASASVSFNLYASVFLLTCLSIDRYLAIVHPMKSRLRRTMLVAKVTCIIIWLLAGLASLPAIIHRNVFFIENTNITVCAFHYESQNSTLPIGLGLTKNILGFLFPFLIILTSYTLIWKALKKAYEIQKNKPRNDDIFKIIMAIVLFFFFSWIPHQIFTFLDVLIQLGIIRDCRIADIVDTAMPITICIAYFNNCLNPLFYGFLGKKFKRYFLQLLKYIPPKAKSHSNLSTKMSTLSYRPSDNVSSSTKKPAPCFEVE

With `CCc1cc(CC(C)C)cc(N2CCN(Cc3cccnn3)CC2)c1-c1nn[nH]n1` [Compound A-168], the IC50 – broadly, the concentration at which inhibition is half-maximal – on human AT2R fused to Cb23 was 17.7 nM. The Papp B→A (in general, the apparent permeability from the basolateral to the apical side of a cell layer) at 90 min, 10 µM in series [1] was determined as 14.7 ×10⁻⁶ cm/s. Also, on human AT1R, the inhibition at 1 µM was < 30% and the inhibition at 10 µM is < 30%. Besides, in series [2] (Caco-2, pH 7.4), the efflux ratio – broadly, a quotient of directional permeabilities that is used to spot active efflux – at 90 min, 10 µM came to 11.3 and the recovery at 90 min, 10 µM was determined as 97%. Moreover, the Papp A→B (in general, how fast a substance crosses the layer from the apical side) at 90 min, 10 µM in series [2] (pH 7.4, Caco-2, AB) was determined as 1.3 ×10⁻⁶ cm/s.
On to `CC(C)Cc1cc(F)c(-c2nn[nH]n2)c(N2CC(C)N(Cc3cccnn3)C(C)C2)c1` (centres unmarked) [Compound A-184, 3-[[4-[3-fluoro-5-isobutyl-2-(2H-tetrazol-5-yl)phen-yl]-2,6-dimethyl-piperazin-1-yl]-methyl]pyridazine], for which the half-maximal inhibitory concentration (IC50) at human AT2R fused to Cb23 is 0.893 nM; on human AT1R (HEK-293 cell membranes, read-out: Binding affinity On hAT1R IC50), 33600 nM. Also, the values for the microsomal CLint in series [3] and in series [4] were 19 µL/min/mg and 18 µL/min/mg, respectively. For the same compound, on human AT1R, the inhibition at 1 µM is < 30%. For the same compound, on human AT1R, the inhibition at 10 µM was < 30%. In addition, the hepatocyte CLint in series [5] is 2 µL/min/1e6 cells.
With `COc1ccnc(CN2CCN(c3cc(CC(C)C)cc(F)c3-c3nn[nH]n3)C[C@@H]2C)c1` [Compound A-227, (2S)-4-[3-fluoro-5-isobutyl-2-(2H-tetrazol-5-yl)phenyl]-1-[(4-methoxy-2-pyridyl)methyl]-2-methyl-piperazine], the IC50 on human AT2R fused to Cb23 came to 8.75 nM. In series [6], the intrinsic metabolic clearance (microsomal CLint) (usually a measure of how fast metabolising enzymes remove a compound, apart from limits set by blood flow) at 1 µM is < 11.7 µL/min/mg. In series [3], this compound had an intrinsic clearance (microsomal CLint) of 22.3 µL/min/mg. Besides, on human AT1R, the inhibition at 1 µM was < 30% and the inhibition at 10 µM is < 30%. In series [4], this compound returned a microsomal CLint of 16.5 µL/min/mg.
With `Cc1cccnc1CN1CCN(c2cc(CC(C)C)cc(F)c2-c2nn[nH]n2)C[C@@H]1C` [Compound A-228, (2S)-4-[3-fluoro-5-isobutyl-2-(2H-tetrazol-5-yl)phenyl]-2-methyl-1-[(3-methyl-2-pyridyl)methyl]piperazine], the IC50 at human AT2R fused to Cb23 stood at 14.9 nM. Further, the intrinsic metabolic clearance (microsomal CLint) at 1 µM in series [6] is < 11.7 µL/min/mg. In series [3], this compound returned a microsomal CLint of 28.3 µL/min/mg. For the same compound, at human AT1R, the inhibition at 1 µM was < 30% and the inhibition at 10 µM is < 30%. This compound also had a microsomal CLint in series [4] of 97.6 µL/min/mg.
Take `Cc1ccnc(CN2CCN(c3cc(CC(C)C)cc(F)c3-c3nn[nH]n3)C[C@@H]2C)c1` [Compound A-229, (2S)-4-[3-fluoro-5-isobutyl-2-(2H-tetrazol-5-yl)phenyl]-2-methyl-1-[(4-methyl-2-pyridyl)methyl]piperazine]: the IC50 on human AT2R fused to Cb23 came out at 7.98 nM. Moreover, the intrinsic metabolic clearance (microsomal CLint) at 1 µM in series [6] was < 11.7 µL/min/mg. The values for the intrinsic metabolic clearance (microsomal CLint) in series [3] and in series [4] were 24.8 µL/min/mg and 21.6 µL/min/mg, respectively. Also, the inhibition at 1 µM at human AT1R was < 30%. Besides, at human AT1R, the inhibition at 10 µM is < 30%.
